What was measured:
[1] = target: T1, AtD14-AtMAX2 interaction (Arabidopsis thaliana, UniProt Q9SQR3); experiment: Yeast two-hybrid assay AtD14-AtMAX2; format: cell-based; settings: up to 200 μM
T1 construct: the CDS of ShHTL7 and AtD14 were cloned into yeast expression vector pBrigde; expressed in transfected cells; host or cells: yeast AH109
Method: To construct plasmids for yeast two-hybrid assays, the CDS of ShHTL7 and AtD14 were cloned into yeast expression vector pBrigde to generate BD-ShHTL7 and BD-AtD14, and the CDS of ShMAX2, AtMAX2, SMAX1 were cloned into pGADT7 to make Gal4 DNA activation domain (AD) constructs, respectively. Primers used for yeast expression vector construction are listed in Supplementary Table 6. Yeast two-hybrid assays were performed using the Yeastmaker Yeast Transformation System 2 (Clontech). In brief, Yeast AH109 cells were co-transformed with specific bait and prey constructs and coated on selective growth medium SD/-Leu-Trp for 3 days at 30 °C, pick the positive constructs into liquid selective growth medium SD/-Leu-Trp shaking for 36 h at 30 °C. Washed yeast cells three times and diluted, made sure OD600 reached 2.5, then serial 10-fold dilutions of yeast cultures were spotted onto selective growth mediums that were supplemented with different concentrations of rac-GR24 and tested molecules, respectively. All yeast transformants were grown on a selective growth medium at 30 °C for 3 days.

[2] = system: ShHTL7S95C; experiment: Hydrolysis reaction analysis with ShHTL7 S95C mutant; format: biochemical, Striga hermonthica; settings: Supplementary Fig. 24a
Method: (§1) Compounds 4a, (R)- and (S)-4a, 4g-i, and rac-GR24 were dissolved in DMSO and prepared as stock solution ([…]) just before use. A 200 μL of the reaction solution consisting of PBS buffer (pH 7.3), 10 μM samples, and 10 μg recombinant ShHTL7 or its mutants was incubated at 30 °C for 30 min; with the reaction solution (200 μL) containing PBS buffer (pH 7.3) and 10 μM samples as the blank control[40],[52]. Subsequently, the reaction was terminated by adding 200 μL of methanol, and then the reaction mixture was shaken for 10 s and centrifuged at 5310 × g for 60 s. The supernatant was filtered and the remaining amount of samples was analyzed by HPLC. The relative percentages of hydrolysis were obtained by using the amount of compounds in blank control as reference.
Supplementary Fig. 24. a, Relative percentage of hydrolysis of compound 4g by ShHTL7S95A, ShHTL7S95C, and ShHTL7. b, LC-MS analysis of the full-length His-tagged ShHTL7 in native condition. c, LC-MS analysis of the full-length His-tagged ShHTL7S95A in native condition, the mass of 34699 Da (reduction of […] compared with that of ShHTL7) is the peak of ShHTL7S95A. d, LC-MS analysis of full-length His-tagged ShHTL7S95C in native condition, the mass increment of 18 Da […]

[3] = system: ShHTL7H246A; experiment: Hydrolysis reaction analysis with ShHTL7 H246A mutant; format: biochemical, Striga hermonthica; settings: Supplementary Fig. 20a
Method: as §1
Supplementary Fig. 20. Effect of key amino acid residues on the hydrolysis of ShHTL7 and binding affinity. a, Relative percentage of hydrolysis of compound (S)-4a by ShHTL7S95A, ShHTL7H246A, and ShHTL7. The error bar indicates SD (n = 3 biologically independent experiments). b, Competitive mutants of ShHTL7 inhibitory activity in YLG assay. Data are the means ± SD (n = 3 biologically independent experiments).
(1 picture or pasted object on this page, not shown here)

T1 sequence (Q9SQR3 whole entry): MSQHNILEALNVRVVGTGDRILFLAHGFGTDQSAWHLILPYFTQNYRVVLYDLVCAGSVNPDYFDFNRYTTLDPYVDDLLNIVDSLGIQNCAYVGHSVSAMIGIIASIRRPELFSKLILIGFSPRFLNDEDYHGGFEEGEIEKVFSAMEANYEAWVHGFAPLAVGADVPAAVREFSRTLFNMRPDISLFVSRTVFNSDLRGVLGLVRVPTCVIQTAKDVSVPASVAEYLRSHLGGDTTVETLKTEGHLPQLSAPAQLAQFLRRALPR

CC1=CC(OC(=O)N2CCN(C(=O)COc3ccc(Br)cc3C)CC2)OC1=O (stereo not drawn) [4a]
induction of AtD14-AtMAX2 interaction (Y2H) [1]: did not promote the interaction

CC1=CC(OC(=O)N2CCN(C(=O)COc3ccc(Br)cc3C)CC2)CC1=O (stereo not drawn) [4g]
relative percentage of hydrolysis by ShHTL7S95C, source data average [2]: 4.848%

CC1=C[C@H](OC(=O)N2CCN(C(=O)COc3ccc(Br)cc3C)CC2)OC1=O [(S)-4a]
relative percentage of hydrolysis by ShHTL7H246A, source data average [3]: 0.5315%
